The record followed here is patent US20240228490A1, “HETEROCYCLIC DERIVATIVE INHIBITOR AND PREPARATION METHOD THEREFOR AND APPLICATION THEREOF” (Shanghai Hansoh Biomedical Co., Ltd., priority 2021, published 2024).

Molecules are shown by their SMILES. Read-outs that look alike come from different tables or passages of the source.

For data set [1], the target named is PARP1 enzyme (Homo sapiens (Human), UniProt P09874). As to the kind of experiment: Inhibitory activity on PARP1 enzyme (chemiluminescence). Format: biochemical. The protocol:
The inhibitory activity of the compounds on PARP1 enzyme was determined by the chemiluminescence method in the experiment. The experiment was carried out in a 384-well plate. Coating histones in a 384-well plate: 5×histone solution was diluted 5 folds with PBS, added to a 384-well ELISA plate (25 μL per well), and incubated at 4° C. overnight. […] A mixture of PARP reaction biotin-labeled substrate, activated DNA, 10×PARP buffer and water was added (12.5 μL per well). Compound solutions with different concentrations were formulated using the experimental buffer (10% DMSO aqueous solution containing 1.25 mM DTT). The final detection concentration started from 100 nM, with 3-fold dilution and 8 concentrations. The compound solutions were added to the reaction wells of the 384-well plate (2.5 μL per well). 2.5 μL of 10% DMSO aqueous solution containing 1.25 mM DTT was added to the positive control well and blank well (2.5 μL per well). […] The plate was centrifuged at 1000 rpm for 1 minute, and reacted at room temperature for 60 minutes. […] Streptavidin-HRP solution diluted 50 folds with Blocking buffer 3 was added (25 μL per well), and the plate was incubated at room temperature for 30 minutes. […] The luminescence reaction solution obtained by mixing ECL substrate A and ELISA ECL substrate B (1:1) was added (50 μL per well) for reaction. The chemiluminescence values were measured immediately with a BioTek Synergy H1 or Envision instrument.
The chemiluminescence values were measured with a BioTek Synergy H1 or Envision instrument. The inhibition rate was calculated, and the concentration and inhibition rate were fitted to a nonlinear regression curve using Graphpad Prism software to obtain the IC50 value.

Data set [2] deals with BRCA2 Knockout DLD-1 cells. As to the kind of experiment: Inhibition of proliferation of BRCA2 Knockout DLD-1 cells (CellTiter-Glo). Format: cell-based. As to conditions: Homo sapiens, about 144 hours incubation. The protocol: BRCA2 Knockout DLD-1 cells were cultured using RPMI1640 culture medium containing 10% FBS to an appropriate cell density. The cells were collected, and adjusted to an appropriate cell concentration using the complete culture medium. The cell suspension was spread on a 96-well plate (90 μL per well), and placed in a 37° C., 5% CO2 incubator overnight. Compound solutions of different concentrations were formulated using DMSO and culture medium, and vehicle control was set up. The compound solutions were added to the 96-well plate (10 μL per well), and the plate was incubated in a 37° C., 5% CO2 incubator for about 144 hours. CellTiter-Glo solution was added, and the plate was shaken to mix evenly, and incubated in the dark for 10 to 30 minutes. The values were measured with a Synergy H1 or Envision microplate reader.
The inhibition rate was calculated using the luminescence signal value. The concentration and inhibition rate were fitted to a nonlinear regression curve using Graphpad Prism software to obtain the IC50 value.
A general note: In ATP-based viability assays light output follows the ATP content of the culture.

The nature of data set [3]: PK part of PK/PD study in MDA-MB-436 subcutaneous xenograft model: plasma and tumor concentration. It is filed as in vivo, BALB/c nude mice. As to conditions: female, BALB/c nude, mouse, single oral 0.3 mg/kg. An excerpt:
• a. […] Cells were passaged once every three days. […] The resulting suspension was placed in an ice box for later use.
• a. […] During the inoculation, the cell suspension was mixed well. […] The nude mouse was bound with the left hand. […] Inoculation started after 30 seconds. • d.
• a. Grouping: According to the growth of the tumor, when the tumor grew to a volume of 300-500 mm^3, tumor-bearing mice were selected according to the experimental design and randomly grouped (3 mice per each time point) to start the PK/PD test. • b. Fasting: All tumor-bearing mice were fasted (with free access to water) overnight (fasting >8 hours) before the administration. • c. Administration: Except for the blank control group, a single oral administration was carried out according to the time of the experimental design, and the administration volume was 10 mL/kg. • d. Sample collection: The mice were euthanized by CO2 asphyxiation according to the time of the experimental design, and the samples were collected. One plasma sample and three tumor tissue samples were collected from each animal.
Plasma collection: After the mouse was euthanized, blood was collected from the heart. The collected blood was added to a centrifuge tube containing EDTA-K2. The tube was manually inverted 3 to 4 times, placed on ice, and centrifuged at 8000 rpm at 4° C. for 5 minutes. 100 μL of the centrifuged plasma was transferred to a new labeled centrifuge tube. One aliquot of plasma was quickly freezed on dry ice, and stored in a refrigerator at −80±10° C. for PK test.
Tumor tissue collection: After the blood collection, the tumor tissue was collected. The collected tumor tissue was divided into 3 aliquots (˜0.1 g each), placed into labeled 2 mL centrifuge tubes, and stored in a refrigerator at −80±10° C. for PK or PD test.
a. Sample Process: • 1) 4 parts by weight of 20% methanol in water was added to 1 part by weight of the tumor tissue sample, and homogenized at 40 Hz for 400 seconds.

[4] abbreviates: plasma, read-out: Mean plasma concentration.
[5] abbreviates: tumor tissue, read-out: Mean tumor tissue concentration.

Chain of PARP1 enzyme (P09874 whole entry): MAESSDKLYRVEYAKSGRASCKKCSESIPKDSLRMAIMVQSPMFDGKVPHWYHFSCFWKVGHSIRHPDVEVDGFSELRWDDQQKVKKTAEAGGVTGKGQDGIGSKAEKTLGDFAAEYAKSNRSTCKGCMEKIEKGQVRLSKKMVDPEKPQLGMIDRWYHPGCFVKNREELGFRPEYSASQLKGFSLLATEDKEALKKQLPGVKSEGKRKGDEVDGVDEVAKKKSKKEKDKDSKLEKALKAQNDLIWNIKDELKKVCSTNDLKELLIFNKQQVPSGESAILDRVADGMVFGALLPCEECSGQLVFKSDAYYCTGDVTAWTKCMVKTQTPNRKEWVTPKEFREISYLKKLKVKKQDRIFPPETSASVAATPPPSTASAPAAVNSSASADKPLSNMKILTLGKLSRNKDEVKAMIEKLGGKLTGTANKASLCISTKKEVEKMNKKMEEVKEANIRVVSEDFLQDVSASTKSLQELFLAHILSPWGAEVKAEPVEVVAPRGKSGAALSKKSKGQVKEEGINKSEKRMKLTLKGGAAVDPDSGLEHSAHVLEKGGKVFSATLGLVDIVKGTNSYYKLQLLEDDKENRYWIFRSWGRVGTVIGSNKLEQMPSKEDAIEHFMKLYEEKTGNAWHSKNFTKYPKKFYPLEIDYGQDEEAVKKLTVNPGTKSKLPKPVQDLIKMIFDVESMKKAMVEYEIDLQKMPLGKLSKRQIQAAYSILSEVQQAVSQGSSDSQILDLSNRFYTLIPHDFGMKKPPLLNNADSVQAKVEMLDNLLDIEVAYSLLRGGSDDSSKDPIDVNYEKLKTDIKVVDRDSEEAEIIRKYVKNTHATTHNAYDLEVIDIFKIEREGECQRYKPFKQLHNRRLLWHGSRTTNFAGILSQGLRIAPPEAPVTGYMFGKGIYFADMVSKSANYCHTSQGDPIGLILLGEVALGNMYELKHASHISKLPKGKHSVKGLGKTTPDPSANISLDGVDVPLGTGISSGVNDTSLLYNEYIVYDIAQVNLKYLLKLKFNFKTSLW

What is called IC50 is the concentration needed to halve the response being measured. Turning to `CCc1cc2ncc(CN3CC=C(c4ccc(C(=O)NOC)nc4)CC3)cc2[nH]c1=O` [Example 30, 1′-((7-Ethyl-6-oxo-5,6-dihydro-1,5-naphthyridin-3-yl)methyl)-N-methoxy-1′,2′,3′,6′-tetra hydro-[3,4′-bipyridine]-6-carboxamide], the values for the IC50 in data set [1] and in data set [2] were 1.4 nM and 3.2 nM, respectively.
In the case of `CCc1cc2ncc(CN3CC=C(c4ccc(C(=O)NC5(C#N)CC5)nc4)CC3)cc2[nH]c1=O` [Example 59, N-(1-Cyanocyclopropyl)-1′-((7-ethyl-6-oxo-5,6-dihydro-1,5-naphthyridin-3-yl)methyl)-1′,2′,3′,6′-tetrahydro-[3,4′-bipyridine]-6-carboxamide], the concentration for half-maximal inhibition (IC50) in data set [1] came to 0.8 nM; in data set [2] it was 2.7 nM.
For `CCc1cc2c(C#N)cc(CN3CC=C(c4ccc(C(=O)NC)nc4)CC3)cc2[nH]c1=O` [Example 42, 1′-((5-Cyano-3-ethyl-2-oxo-1,2-dihydroquinolin-7-yl)methyl)-N-methyl-1′,2′,3′,6′-tetrahydro-[3,4′-bipyridine]-6-carboxamide], the IC50 in data set [1] turned out to be 1.3 nM; in data set [2], 3 nM.
As for `CCc1cc2ncc(CN3CCN(c4cnc5c(NC)ncc(F)c5c4)CC3)cc2[nH]c1=O` [Example 94, 3-Ethyl-7-((4-(5-fluoro-8-(methylamino)-1,7-naphthyridin-3-yl)piperazin-1-yl)methyl)-1,5-naphthyridin-2(1H)-one], the IC50 in data set [2] came to 8.4 nM.
As for `CCc1cc2ncc(CN3CCC(c4ccc(C(=O)NC)nc4)=C(F)C3)cc2[nH]c1=O` [Example 81, 1′-((7-Ethyl-6-oxo-5,6-dihydro-1,5-naphthyridin-3-yl)methyl)-5′-fluoro-N-methyl-1′,2′,3′,6′-tetrahydro-[3,4′-bipyridine]-6-carboxamide], the IC50 in data set [1] came out at 0.9 nM; in data set [2], 1.5 nM.
In the case of `CCc1cc2ncc(CN3CC=C(c4cnc5c(NC)nccc5c4)CC3)cc2[nH]c1=O` [Example 102, 3-Ethyl-7-((4-(8-(methylamino)-1,7-naphthyridin-3-yl)-3,6-dihydropyridin-1(2H)-yl)methyl)-1,5-naphthyridin-2(1H)-one], the IC50 in data set [2] is 5.2 nM.
In the case of `[2H]C([2H])([2H])Nc1nccc2cc(N3CCN(Cc4cnc5cc(CC)c(=O)[nH]c5c4)CC3)cnc12` [Example 98, 3-Ethyl-7-((4-(8-((methyl-d3)amino)-1,7-naphthyridin-3-yl)piperazin-1-yl)methyl)-1,5-naphthyridin-2(1H)-one], the IC50 in data set [2] is 1.7 nM.
Take `CCc1cc2ncc(CN3CC=C(c4ccc(C(=O)NCC#N)nc4)CC3)cc2[nH]c1=O` [Example 58, N-(Cyanomethyl)-1′-((7-ethyl-6-oxo-5,6-dihydro-1,5-naphthyridin-3-yl)methyl)-1′,2′,3′,6′-tetrahydro-[3,4′-bipyridine]-6-carboxamide]: the IC50 in data set [1] was 0.9 nM; in data set [2] it was 2.4 nM.
With `CCc1cc2ncc(CN3CCN(c4ccc(C(=O)NC)nc4)CC3)cc2[nH]c1=O` [AZD5305, reference compound], in data set [3] (setting [4]), the concentration at 1 h is 1460 ng/mL, the concentration at 2 h was found to be 1370 ng/mL, the concentration at 4 h stood at 1120 ng/mL and the concentration at 6 h stood at 713 ng/mL. In data set [3] (setting [4]), the concentration at 8 h was 584 ng/mL, the concentration at 16 h is 252 ng/mL, the concentration at 24 h was found to be 102 ng/mL and the concentration at 32 h turned out to be 41 ng/mL. Besides, in data set [3] (setting [4]), the concentration at 48 h is 10 ng/mL and the concentration at 72 h was 6 ng/mL. In data set [3] (setting [5]), the concentration at 1 h is 41 ng/g, the concentration at 2 h stood at 100 ng/g, the concentration at 4 h is 131 ng/g and the concentration at 6 h was 117 ng/g. Besides, in data set [3] (setting [5]), the concentration at 8 h amounted to 95 ng/g, the concentration at 16 h is 94 ng/g, the concentration at 24 h is 61 ng/g and the concentration at 32 h turned out to be 59 ng/g. Moreover, in data set [3] (setting [5]), the concentration at 48 h is 44 ng/g and the concentration at 72 h was found to be 31 ng/g.
For `CCc1cc2ncc(CN3CC=C(c4ncc(C)n4C)CC3)cc2[nH]c1=O` [Example 53, 7-((4-(1,5-Dimethyl-1H-imidazol-2-yl)-3,6-dihydropyridin-1(2H)-yl)methyl)-3-ethyl-1,5-naphthyridin-2(1H)-one], the results for the IC50 in data set [1] and in data set [2] were 0.96 nM and 7.5 nM, respectively.
As to `CCc1cc2ncc(CN3CC=C(c4ccc(C(=O)NCC(F)(F)F)nc4)CC3)cc2[nH]c1=O` [Example 83, 1′-((7-Ethyl-6-oxo-5,6-dihydro-1,5-naphthyridin-3-yl)methyl)-N-(2,2,2-trifluoroethyl)-1′,2′,3′,6′-tetrahydro-[3,4′-bipyridine]-6-carboxamide], the IC50 in data set [1] and in data set [2] was 1.4 nM in each case.
As for `CCc1cc2ncc(CN3CC=C(c4ccc(C(=O)NC)nc4Cl)CC3)cc2[nH]c1=O` [Example 56, 2-Chloro-1′-((7-ethyl-6-oxo-5,6-dihydro-1,5-naphthyridin-3-yl)methyl)-N-methyl-1′,2′,3′,6′-tetrahydro-[3,4′-bipyridine]-6-carboxamide], the results for the IC50 in data set [1] and in data set [2] were 1.3 nM and 1 nM, respectively.
For `CNC(=O)c1ccc(C2=CCN(Cc3cnc4cc(C(F)(F)F)c(=O)[nH]c4c3)CC2)cn1` [Example 84, N-Methyl-1′-((6-oxo-7-(trifluoromethyl)-5,6-dihydro-1,5-naphthyridin-3-yl)methyl)-1′,2′,3′,6′-tetrahydro-[3,4′-bipyridine]-6-carboxamide] the same measures were 2.7 nM and 5.1 nM.
